What was measured:
Test in all cases: Fractional growth, 72 h seliciclib
Type in all cases: cell-based, human
22RV1 = 22RV1 (Prostate), 15 μM seliciclib
Text: (§1) A total of 270 human cancer cell lines from diverse cancer histopathologic types were investigated.

A-204 = A-204 (Muscle), 15 μM seliciclib
Text: as §1

AN3CA = AN3CA (Uterus), 15 μM seliciclib
Text: as §1

AZ-521 = AZ-521 (Stomach), 15 μM seliciclib
Text: as §1

C-33 A = C-33 A (Cervix), 15 μM seliciclib
Text: as §1

CAL-62 = CAL-62 (Thyroid), 15 μM seliciclib
Text: as §1

CHSA8926 = CHSA8926 (Bone), 15 μM seliciclib
Text: as §1

Caki-1 = Caki-1 (Kidney), 15 μM seliciclib
Text: as §1

GP5d = GP5d (Intestine), 15 μM seliciclib
Text: as §1

H2052 = H2052 (Lung), 15 μM seliciclib
Text: as §1

H2596 = H2596 (Lung), 15 μM seliciclib
Text: as §1

H4 = H4 (Brain), 15 μM seliciclib
Text: as §1

HEC-1 = HEC-1 (Uterus), 15 μM seliciclib
Text: as §1

HMVII = HMVII (Skin), 15 μM seliciclib
Text: as §1

HUP-T3 = HUP-T3 (Pancreas), 15 μM seliciclib
Text: as §1

HeLa = HeLa (Cervix), 15 μM seliciclib
Text: as §1

JHH-2 = JHH-2 (Liver), 15 μM seliciclib
Text: as §1

KP-3 = KP-3 (Pancreas), 15 μM seliciclib
Text: as §1

LNZTA3WT4 = LNZTA3WT4 (Brain), 15 μM seliciclib
Text: as §1

NCI-H1781 = NCI-H1781 (Lung: NSCLC), 15 μM seliciclib
Text: as §1

NCI-H1975 = NCI-H1975 (Lung: NSCLC), 15 μM seliciclib
Text: as §1

NCI-H2023 = NCI-H2023 (Lung: NSCLC), 15 μM seliciclib
Text: as §1

OVCAR-5 = OVCAR-5 (Ovary), 15 μM seliciclib
Text: as §1

PC-9 = PC-9 (Lung: NSCLC), 15 μM seliciclib
Text: as §1

PCI-15A = PCI-15A (Head & Neck), 15 μM seliciclib
Text: as §1

PCI-38 = PCI-38 (Head & Neck), 15 μM seliciclib
Text: as §1

PCI-4B = PCI-4B (Head & Neck), 15 μM seliciclib
Text: as §1

Panc 08.13 = Panc 08.13 (Pancreas), 15 μM seliciclib
Text: as §1

RERF-GC-1B = RERF-GC-1B (Stomach), 15 μM seliciclib
Text: as §1

RERF-LC-Sq1 = RERF-LC-Sq1 (Lung: NSCLC), 15 μM seliciclib
Text: as §1

RPMI 2650 = RPMI 2650 (Head & Neck), 15 μM seliciclib
Text: as §1

RT-112 = RT-112 (Bladder), 15 μM seliciclib
Text: as §1

SCaBER = SCaBER (Bladder), 15 μM seliciclib
Text: as §1

SW 780 = SW 780 (Bladder), 15 μM seliciclib
Text: as §1

T24 = T24 (Bladder), 15 μM seliciclib
Text: as §1

TCCSUP = TCCSUP (Bladder), 15 μM seliciclib
Text: as §1

WM-115 = WM-115 (Skin), 15 μM seliciclib
Text: as §1

## CC[C@H](CO)Nc1nc(NCc2ccccc2)c2ncn(C(C)C)c2n1 [seliciclib, roscovitine]
22RV1
  Fractional Growth: 0.7432
A-204
  Fractional Growth: 0.2653
AN3CA
  Fractional Growth: 0.2094
AZ-521
  Fractional Growth: 0.5115
C-33 A
  Fractional Growth: 0.5677
CAL-62
  Fractional Growth: 0.3139
CHSA8926
  Fractional Growth: 0.674
Caki-1
  Fractional Growth: 0.3885
GP5d
  Fractional Growth: 0.7382
H2052
  Fractional Growth: 0.3892
H2596
  Fractional Growth: 0.7486
H4
  Fractional Growth: 0.9708
HEC-1
  Fractional Growth: 0.4632
HMVII
  Fractional Growth: 0.4646
HUP-T3
  Fractional Growth: 0.4333
HeLa
  Fractional Growth: 0.9192
JHH-2
  Fractional Growth: 0.635
KP-3
  Fractional Growth: 0.3396
LNZTA3WT4
  Fractional Growth: 0.6936
NCI-H1781
  Fractional Growth: 0.6273
NCI-H1975
  Fractional Growth: 0.4117
NCI-H2023
  Fractional Growth: 0.4148
OVCAR-5
  Fractional Growth: 0.4053
PC-9
  Fractional Growth: 0.7822
PCI-15A
  Fractional Growth: 0.4965
PCI-38
  Fractional Growth: 0.3656
PCI-4B
  Fractional Growth: 0.4686
Panc 08.13
  Fractional Growth: 0.4222
RERF-GC-1B
  Fractional Growth: 0.6411
RERF-LC-Sq1
  Fractional Growth: 0.6428
RPMI 2650
  Fractional Growth: 0.1937
RT-112
  Fractional Growth: 0.243
SCaBER
  Fractional Growth: 0.5642
SW 780
  Fractional Growth: 0.3743
T24
  Fractional Growth: 0.5262
TCCSUP
  Fractional Growth: 0.6407
WM-115
  Fractional Growth: 0.5068

Reference: patent publication US20130005747A1, “METHOD FOR SELECTING A CANCER THERAPY” (Cyclacel Limited, priority 2010, published 2013)
